According to patent publication US11713305B2, “Zinc sensors for in vivo imaging of beta-cell function by MRI” (The Board of Regents of the University of Texas System, priority 2017, dated 2023):

Legend:
[1] = 17O NMR of Gd complexes (water exchange, SBM fitting); assay type: physicochemical; parameters: A/ℏ: unit not given here; conditions: for hyperfine coupling constant (AO/ℏ): 17O NMR fit, underlined values fixed during fitting; for water exchange rate kex^310 / ΔH‡ / ER / τRO^298 / A/ℏ / EV / Δ^2 / τV^298: 17O NMR; for water exchange rate kex^310 / ΔH‡: 9.4 T; for water exchange rate kex^310: 310 K; for ΔH‡ / ER / τRO^298 / A/ℏ / EV / Δ^2 / τV^298: best-fit; for ΔH‡: [Gd^3+]=25 mM; for ER: activation energy of rotational correlation time; for τRO^298: rotational correlation time; for A/ℏ: scalar coupling constant; for EV / Δ^2 / τV^298: sometimes fixed; for faster water exchange rates: compared with GdL1 and GdL4; for empirical constant describing the outer sphere contribution to the 17O chemical shift, Cos: fitted; for water exchange rate kex: slowest exchange rates, in 1/s
Description: Given that the rate of water exchange (kex) in these complexes is likely the limiting factor in determining the magnitude of r1 increase when the GdL-Zn complexes bind to HSA, further temperature dependent ^17O NMR studies were performed to evaluate the water exchange rates. A simultaneous analysis of ^17O reduced T1, T2, and chemical shift (Δωr) data were analyzed (Powell et al., 1996; Gonzalez et al., 1994; Martins et al., 2013; Martins et al., 2015) to estimate the q values, kex, and hyperfine coupling constants for GdL1-5.
^17O NMR experiments were performed at 9.4 T on a Bruker AVANCE III NMR spectrometer. The temperature was regulated by air flow controlled by a Bruker VT unit. The samples ([Gd^3+]=25 mM; [Dy^3+]=1 mM) were prepared in ^17O enriched water (10%) with the pH being maintained at 7.4 with 100 mM Tris buffer. The sample was loaded into a 18 μL spherical bulb (Wilmad-Lab Glass, Vineland, NJ) and placed inside a 5 mm NMR tube containing 400 μL of water to eliminate any susceptibility effects. Longitudinal relaxation rates (1/T1) were obtained by the inversion recovery method and transverse relaxation rates (1/T2) were obtained by the Carr-Purcell—Meiboom—Gill spin echo technique. The acidified water (pH=3.0) containing 10% enriched ^17O water was used as a reference for the measurements. For the DyL4 complexes (no HSA and with HSA+Zinc), acidified water solutions and 1 mM LaL4+3 mM HSA with zinc (1:1) were used as the corresponding references. The corresponding fittings were performed with the Scientist 3.0 software (Micromath®).
^17O NMR data have been analyzed within the framework of Solomon-Bloembergen-Morgan theory.
From the measured ^17O NMR relaxation rates and angular frequencies of the paramagnetic solutions, 1/T1, 1/T2 and ω, and of the acidified water reference, a1/T1A, 1/T2A and ωA, one can calculate the reduced relaxation rates and chemical shifts, 1/7′2, and Δωr, which may be written in Equations (A1)-(A3), where, 1/T1m, 1/T2m, is the relaxation rate of the bound water and Awn, is the chemical shift difference between bound and bulk water molecules, τm is the mean residence time or the inverse of the water exchange rate kex and Pm is the mole fraction of the bound water (Swift and Connick, 1962; Zimmerman and Brittin, 1957).
The outer sphere contributions to the ^17O relaxation rates 1/T1OS and 1/T2OS are being neglected according to previous studies (Micskei et al., 1993). Therefore, Equations (A1-A2) can be further simplified to Equations (A4) and (A5): […]
The exchange rate is supposed to obey the Eyring Equation. In Equation (A6) ΔS^‡ and ΔH^‡ are the entropy and enthalpy of activation for the water exchange process, and kex^298 is the exchange rate at 298.15 K.
In the transverse relaxation, the scalar contribution, 1/T2s, is the most relevant [Equation (A7)]. 1/τsl is the sum of the exchange rate constant and the electron spin relaxation rate [Equation (A8)].
The ^17O longitudinal relaxation rates in Gd^3+ solutions are the sum of the contributions of the dipole-dipole (dd) and quadrupolar (q) mechanisms as expressed by Equations (A11-A13) for non-extreme narrowing conditions, where γS is the electron and γ1 is the nuclear gyromagnetic ratio (γS=1.76×10^11 rad s^−1 T^−1, γ1=˜3.626×107 rad s^−1 T^−1), rGdO is the effective distance between the electron charge and the ^17O nucleus, I is the nuclear spin (5/2 for ^17O), x is the quadrupolar coupling constant and η is an asymmetry parameter:
In Equation (A3) the chemical shift of the bound water molecule, Δωm, depends on the hyperfine interaction between the Gd^3+ electron spin and the ^17O nucleus and is directly proportional to the scalar coupling constant, A/h, as expressed in Equation (A12) (Brittain and Desreux, 1984).
The isotopic Landé g factor is equal to 2.0 for the Gd^3+, B represents the magnetic field, and kB is the Boltzmann constant. […]

HSA = target: T1, HSA (Homo sapiens, UniProt P02768); assay: Proton relaxation enhancement (PRE) titrations with HSA; assay type: binding; conditions: for r1^c (relaxivity of the bound state): HSA-bound GdL-Zn, from PRE fit; for Kd: fitting proton relaxation enhancement data to equation (1), 20 MHz, 310 K, read-out: KD(GdLZnHSA)
T1 construct: purchased Sigma-Aldrich
T1 sequence (P02768 25-609): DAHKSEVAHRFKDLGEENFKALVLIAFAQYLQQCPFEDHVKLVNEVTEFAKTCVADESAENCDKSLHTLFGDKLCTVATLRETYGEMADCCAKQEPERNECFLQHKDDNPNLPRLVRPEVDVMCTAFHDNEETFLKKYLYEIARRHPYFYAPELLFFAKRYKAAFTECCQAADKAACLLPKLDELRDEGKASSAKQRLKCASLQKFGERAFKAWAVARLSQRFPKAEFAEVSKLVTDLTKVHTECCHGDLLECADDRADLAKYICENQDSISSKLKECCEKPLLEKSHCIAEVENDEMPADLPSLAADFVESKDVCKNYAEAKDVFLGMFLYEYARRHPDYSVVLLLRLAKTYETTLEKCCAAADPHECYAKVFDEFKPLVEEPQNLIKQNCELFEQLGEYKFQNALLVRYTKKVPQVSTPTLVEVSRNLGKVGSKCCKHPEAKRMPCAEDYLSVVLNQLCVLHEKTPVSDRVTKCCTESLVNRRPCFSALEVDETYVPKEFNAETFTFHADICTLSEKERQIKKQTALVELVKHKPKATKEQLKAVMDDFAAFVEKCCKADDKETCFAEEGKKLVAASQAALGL
Description: Proton relaxation enhancement (PRE) titrations were performed to evaluate the binding of these agents to HSA under conditions where the concentration of HSA was varied while the concentration of GdL and Zn^2+ (1:1) were held constant (FIG. 6). […] These types of complexes only bind to HSA-binding site 2 of subdomain IIIA, so n was assumed=1.
Affinity constants to HSA were assessed by proton relaxation enhancement (PRE) measurements according to published procedures (Martins et al., 2013a; Martins et al., 2013b) The proton relaxation rates at increasing concentrations of protein were measured with a MRS-6 NMR analyzer (20 MHz, 310 K). For the E-titration, the concentrations of GdL complex (0.1 mM) and Zn(II) (0.1 mM) were kept constant, while the protein concentration was varied from 0 to 0.6 mM.

SMILES	hyperfine coupling constant (AO/ℏ) [1]	water exchange rate kex^310 [1]	ΔH‡ [1] [kcal/mol]	ER [1] [kcal/mol]	τRO^298 [1] [ps]	A/ℏ [1]	EV [1] [kcal/mol]	Δ^2 [1]	τV^298 [1] [ps]	faster water exchange rates [1] [fold]	r1^c (relaxivity of the bound state) (HSA) [s⁻¹ mM⁻¹]	Kd (HSA) [µM]	empirical constant describing the outer sphere contribution to the 17O chemical shift, Cos [1]	water exchange rate kex [1]
O=C(O)CN1CCN(CCC(=O)NCCN(CCc2ccccn2)Cc2ccccn2)CCN(CC(=O)O)CCN(CC(=O)O)CC1 [GdL5]	−3.9 ± 0.3 ×10^6 rad/s	100 ± 1 ×10^6 s^−1	10.9 ± 0.311	3.59	305 ± 10	−3.9 ± 0.2	0.239	0.67 ± 0.2 10^20 s^−2	14 ± 0.2	~30	12 ± 0.3	54 ± 1	–	–
O=C(O)CN1CCN(CCC(=O)NCCN(Cc2ccccn2)Cc2ccccn2)CCN(CC(=O)O)CCN(CC(=O)O)CC1 [GdL2]	−3.7 ± 0.2 ×10^6 rad/s	100 ± 1 ×10^6 s^−1	10.9 ± 0.263	4.09 ± 0.048	320 ± 11	−3.7 ± 0.2	0.263 ± 0.0024	0.13 ± 0.01 10^20 s^−2	7.1 ± 0.1	~30	28 ± 0.3	49 ± 7	0.1	–
O=C(O)CN1CCN(CC(=O)O)CCN(CC(=O)NCCN(Cc2ccccn2)Cc2ccccn2)CCN(CC(=O)O)CC1 [GdL1]	−4.0 ± 0.2 ×10^6 rad/s	2.9 ± 0.1 ×10^6 s^−1	10.6 ± 0.239	4.95 ± 0.048	280 ± 11	−4.0 ± 0.1	0.263 ± 0.024	0.10 ± 0.01 10^20 s^−2	4.6 ± 0.1	–	20 ± 0.5	48 ± 6	–	~3 ×106 5-1
O=C(O)CCN1CCN(CC(=O)O)CCN(CC(=O)NCCN(Cc2ccccn2)Cc2ccccn2)CCN(CC(=O)O)CC1 [GdL3]	−3.7 ×10^6 rad/s	90 ± 0.2 ×10^6 s^−1	11.2 ± 0.239	4.11 ± 0.024	320	−3.7	0.263	0.13 10^20 s^−2	7.1	~30	30 ± 0.6	51 ± 7	0.1	–
O=C(O)CN1CCN(CC(=O)O)CCN(CC(=O)NCCN(CCc2ccccn2)Cc2ccccn2)CCN(CC(=O)O)CC1 [GdL4]	−4.0 ± 0.2 ×10^6 rad/s	3.0 ± 0.1 ×10^6 s^−1	3.61 ± 0.359	4.16 ± 0.048	350 ± 12	−4.0 ± 0.4	0.239	0.16 10^20 s^−2	11	–	12 ± 0.3	55 ± 12	–	~3 ×106 5-1
